The values that follow come from patent publication US11840515B2, “Methods for preparing N-(4-fluorobenzyl)-N-(1-methylpiperidin-4-yl)-N′-(4-(2-methylpropyloxy)phenylmethyl)carbamide and its tartrate salt and polymorphic form c” (ACADIA Pharmaceuticals Inc., priority 2015, dated 2023).

Data set [1] can be described thus: solubility in water / aqueous systems. It is filed as physicochemical.
The nature of data set [2]: thermal stability of polymorphic form. It is filed as physicochemical.
A short description of another data set: storage stability. It is filed as physicochemical.
A further data set can be described thus: bioavailability. It is filed as in vivo. The settings on record: free base is deliberated at physiological pH ranges.

Structures can show the parent of a compound that is named as a salt.

Regarding `CC(C)COc1ccc(CNC(=O)N(Cc2ccc(F)cc2)C2CCN(C)CC2)cc1` [pimavanserin, N-(4-fluorophenylmethyl)-N-(1-methylpiperidin-4-yl)-N′-(4-(2-methylpropyloxy)phenylmethyl)carbamide], the solubility in water entry in data set [1] (water) is reported as “low”.

As to `CC(C)COc1ccc(CNC(=O)N(Cc2ccc(F)cc2)C2CCN(C)CC2)cc1` [Polymorphic Form C], the “thermostability of the polymorphic form” value in data set [2] is listed as “thermostabile”.

In the case of `CC(C)COc1ccc(CNC(=O)N(Cc2ccc(F)cc2)C2CCN(C)CC2)cc1` [Pimavanserin tartrate], the “solubility in aqueous systems” value in data set [1] (aqueous systems) is reported as “very good”. The storage stability entry in the data set “storage stability” is given as “high storage stability”. For the same molecule, in the data set “bioavailability”, the bioavailability entry was “high bioavailability”.
